Measurements as given in paper PMC12888861, “Antibacterial activity of enmetazobactam against Acinetobacter spp.: a molecular dissection of mechanism of action and resistance determinants” (Antimicrobial Agents and Chemotherapy, 2025).
Where two headings read alike, the source gives them in different places.

System: A. non-baumannii isolates (n = 87)
Assay: MIC, broth microdilution (EUCAST), A. non-baumannii isolates
Type: cell-based, Acinetobacter spp. (non-baumannii)
From the text: The bacterial strains used in this study comprised 208 clinical isolates from the Spanish National Acinetobacter spp. 2020 Multicenter Collection, which was previously characterized in detail by our research group, including whole-genome sequencing, phylogenetics studies, clonal dynamics, and resistance mechanisms ([2], [29]). Additionally, a collection of A. baumannii ATCC 17978 transformants coding the blaOXA-23, blaOXA-24/40, blaOXA-51, blaOXA-58, blaOXA-143, and blaOXA-201 genes, previously constructed and described by our group ([30]), was used to determine the activity of enmetazobactam against strains carrying the main CHDLs of A. baumannii.
The antimicrobial susceptibility of the 208 Acinetobacter spp. isolates was assessed using the broth microdilution method, as described in the European Committee on Antimicrobial Susceptibility Testing (EUCAST) v.15 guidelines (http://www.eucast.org/clinical_breakpoints). […] MICs for enmetazobactam alone were assessed as well. […] Subsequently, MIC testing was also conducted with a collection of A. baumannii ATCC 17978 transformants expressing clinically relevant OXA-like carbapenemase genes.
The A. baumannii ATCC 19606 strain was used as the reference strain in all susceptibility experiments, in duplicate assays. Antibiotics were purchased from Sigma-Aldrich, except enmetazobactam and durlobactam, which were obtained from Advanz Pharma and MedChemExpress, respectively.

C[n+]1ccn(C[C@@]2(C)[C@H](C(=O)[O-])N3C(=O)C[C@H]3S2(=O)=O)n1 [enmetazobactam]
0.5 µg/mL: MIC (Acinetobacter haemolyticus, isolate NO-Ab217, Acinetobacter haemolyticus, in combinations ETZ fixed at 8 mg/L)
4 µg/mL: MIC (Acinetobacter bereziniae, isolate NO-Ab156, Acinetobacter bereziniae, in combinations ETZ fixed at 8 mg/L, read-out: MIC) | MIC (Acinetobacter calcoaceticus, isolate NO-Ab85, Acinetobacter calcoaceticus, in combinations ETZ fixed at 8 mg/L, read-out: MIC) | MIC (Acinetobacter calcoaceticus, isolate NO-Ab108, Acinetobacter calcoaceticus, in combinations ETZ fixed at 8 mg/L, read-out: MIC) | MIC (Acinetobacter calcoaceticus, isolate NO-Ab198, Acinetobacter calcoaceticus, in combinations ETZ fixed at 8 mg/L, read-out: MIC) | MIC (Acinetobacter calcoaceticus, isolate NO-Ab205, Acinetobacter calcoaceticus, in combinations ETZ fixed at 8 mg/L, read-out: MIC) | MIC (Acinetobacter calcoaceticus, isolate NO-Ab211, Acinetobacter calcoaceticus, in combinations ETZ fixed at 8 mg/L, read-out: MIC) | MIC (Acinetobacter johnsonii, isolate NO-Ab101, Acinetobacter johnsonii, in combinations ETZ fixed at 8 mg/L, read-out: MIC) | MIC (Acinetobacter lactucae, isolate NO-Ab60, Acinetobacter dijkshoorniae, in combinations ETZ fixed at 8 mg/L, read-out: MIC) | MIC (Acinetobacter lactucae, isolate NO-Ab63, Acinetobacter dijkshoorniae, in combinations ETZ fixed at 8 mg/L, read-out: MIC) | MIC (Acinetobacter lactucae, isolate NO-Ab65, Acinetobacter dijkshoorniae, in combinations ETZ fixed at 8 mg/L, read-out: MIC) | MIC (Acinetobacter lactucae, isolate NO-Ab160, Acinetobacter dijkshoorniae, in combinations ETZ fixed at 8 mg/L, read-out: MIC)
8 µg/mL: MIC (Acinetobacter calcoaceticus, isolate NO-Ab161, Acinetobacter calcoaceticus, in combinations ETZ fixed at 8 mg/L, read-out: MIC)
0: MIC distribution 0.12
16 µg/mL: MIC (Acinetobacter nosocomialis, isolate NO-Ab68, Acinetobacter nosocomialis, OXA-24/40, in combinations ETZ fixed at 8 mg/L, read-out: MIC)
1 µg/mL: MIC (Acinetobacter bereziniae, isolate NO-Ab70, Acinetobacter bereziniae, in combinations ETZ fixed at 8 mg/L, read-out: MIC) | MIC (Acinetobacter bereziniae, isolate NO-Ab84, Acinetobacter bereziniae, in combinations ETZ fixed at 8 mg/L, read-out: MIC) | MIC (Acinetobacter bereziniae, isolate NO-Ab104, Acinetobacter bereziniae, in combinations ETZ fixed at 8 mg/L, read-out: MIC) | MIC (Acinetobacter bereziniae, isolate NO-Ab114, Acinetobacter bereziniae, in combinations ETZ fixed at 8 mg/L, read-out: MIC) | MIC (Acinetobacter bereziniae, isolate NO-Ab115, Acinetobacter bereziniae, in combinations ETZ fixed at 8 mg/L, read-out: MIC) | MIC (Acinetobacter bereziniae, isolate NO-Ab116, Acinetobacter bereziniae, in combinations ETZ fixed at 8 mg/L, read-out: MIC) | MIC (Acinetobacter bereziniae, isolate NO-Ab129, Acinetobacter bereziniae, in combinations ETZ fixed at 8 mg/L, read-out: MIC) | MIC (Acinetobacter courvalinii, isolate NO-Ab216, Acinetobacter courvalinii, in combinations ETZ fixed at 8 mg/L, read-out: MIC) | MIC (Acinetobacter haemolyticus, isolate NO-Ab92, Acinetobacter haemolyticus, in combinations ETZ fixed at 8 mg/L) | MIC (Acinetobacter haemolyticus, isolate NO-Ab177, Acinetobacter haemolyticus, in combinations ETZ fixed at 8 mg/L) | MIC (Acinetobacter lactucae, isolate NO-Ab125, Acinetobacter dijkshoorniae, in combinations ETZ fixed at 8 mg/L, read-out: MIC)
2 µg/mL: MIC (Acinetobacter baylyi, isolate NO-Ab27, Acinetobacter baylyi, in combinations ETZ fixed at 8 mg/L, read-out: MIC) | MIC (Acinetobacter beijerinckii, isolate NO-Ab122, Acinetobacter beijerinckii, in combinations ETZ fixed at 8 mg/L, read-out: MIC) | MIC (Acinetobacter bereziniae, isolate NO-Ab117, Acinetobacter bereziniae, in combinations ETZ fixed at 8 mg/L, read-out: MIC) | MIC (Acinetobacter calcoaceticus, isolate NO-Ab94, Acinetobacter calcoaceticus, in combinations ETZ fixed at 8 mg/L, read-out: MIC) | MIC (Acinetobacter dispersus, isolate NO-Ab2, Acinetobacter dispersus, in combinations ETZ fixed at 8 mg/L, read-out: MIC) | MIC (Acinetobacter guillouiae, isolate NO-Ab69, Acinetobacter guillouiae, in combinations ETZ fixed at 8 mg/L, read-out: MIC) | MIC (Acinetobacter guillouiae, isolate NO-Ab74, Acinetobacter guillouiae, in combinations ETZ fixed at 8 mg/L, read-out: MIC) | MIC (Acinetobacter junii, isolate NO-Ab76, Acinetobacter junii, in combinations ETZ fixed at 8 mg/L, read-out: MIC) | MIC (Acinetobacter junii, isolate NO-Ab77, Acinetobacter junii, OXA-24/40, in combinations ETZ fixed at 8 mg/L, read-out: MIC) | MIC (Acinetobacter lactucae, isolate NO-Ab86, Acinetobacter dijkshoorniae, in combinations ETZ fixed at 8 mg/L, read-out: MIC) | MIC (Acinetobacter lactucae, isolate NO-Ab88, Acinetobacter dijkshoorniae, in combinations ETZ fixed at 8 mg/L, read-out: MIC) | MIC (Acinetobacter lactucae, isolate NO-Ab91, Acinetobacter dijkshoorniae, in combinations ETZ fixed at 8 mg/L, read-out: MIC) | MIC (Acinetobacter lactucae, isolate NO-Ab121, Acinetobacter dijkshoorniae, in combinations ETZ fixed at 8 mg/L, read-out: MIC) | MIC (Acinetobacter nosocomialis, isolate NO-Ab43, Acinetobacter nosocomialis, in combinations ETZ fixed at 8 mg/L, read-out: MIC) | MIC (Acinetobacter nosocomialis, isolate NO-Ab98, Acinetobacter nosocomialis, in combinations ETZ fixed at 8 mg/L, read-out: MIC) | MIC (Acinetobacter nosocomialis, isolate NO-Ab208, Acinetobacter nosocomialis, in combinations ETZ fixed at 8 mg/L, read-out: MIC) | MIC (Acinetobacter pittii, MBC set, isolate NO-Ab89, A. pittii, read-out: MIC) | MIC (Acinetobacter pittii, isolate NO-Ab59, Acinetobacter pittii, in combinations ETZ fixed at 8 mg/L, read-out: MIC) | MIC (Acinetobacter pittii, isolate NO-Ab66, Acinetobacter pittii, in combinations ETZ fixed at 8 mg/L, read-out: MIC) | MIC (Acinetobacter pittii, isolate NO-Ab73, Acinetobacter pittii, in combinations ETZ fixed at 8 mg/L, read-out: MIC) | MIC (Acinetobacter pittii, isolate NO-Ab75, Acinetobacter pittii, in combinations ETZ fixed at 8 mg/L, read-out: MIC) | MIC (Acinetobacter pittii, isolate NO-Ab78, Acinetobacter pittii, in combinations ETZ fixed at 8 mg/L, read-out: MIC) | MIC (Acinetobacter pittii, isolate NO-Ab82, Acinetobacter pittii, in combinations ETZ fixed at 8 mg/L, read-out: MIC) | MIC (Acinetobacter pittii, isolate NO-Ab89, Acinetobacter pittii, in combinations ETZ fixed at 8 mg/L, read-out: MIC) | MIC (Acinetobacter pittii, isolate NO-Ab90, Acinetobacter pittii, in combinations ETZ fixed at 8 mg/L, read-out: MIC) | MIC (Acinetobacter pittii, isolate NO-Ab97, Acinetobacter pittii, in combinations ETZ fixed at 8 mg/L, read-out: MIC)
